Reference: publication PMC5201331, “Subchronic Toxicities of HZ1006, a Hydroxamate-Based Histone Deacetylase Inhibitor, in Beagle Dogs and Sprague-Dawley Rats” (International Journal of Environmental Research and Public …, 2016)

Columns and labels:
[1] = Toxicokinetics in Beagle dogs; type: in vivo; conditions: for accumulation coefficient R: after 28 days compared with d1; for Tmax / Cmax / half-life / AUC(0-inf): both sexes, Beagle, dog
Experimental: HZ1006 was administered orally to dogs (four/sex/group) at doses of 80, 40, 20, 5 and 0 (control) mg/kg/day, and the dosage volume was 2 mL/kg. The dogs received test doses with the exact amounts on a weekly basis based on current body weights. […] The other dogs in the above groups were dissected on the planned days. For the other groups, half of the dogs were anatomized on d28 and the remaining half on d42.
The dogs’ blood samples were obtained on the 1st day, the 14th day and the last day (d28) of dosage for plasma HZ1006 content analyses at 0 (1st day only), 1/6, 0.5, 1, 2, 4, 8, 12 and 24 h after dosing, and the blood samples of the rats were acquired on the 1st day and 28th day at the same time as those of the dogs, which were handled and analyzed according to the procedure reported by Zhang et al..

SD rats = experiment: Subchronic toxicity test in SD rats: hematology; type: in vivo, Sprague-Dawley (SD) rats; conditions: for APTT / FIB / Lym / Neu / WBC: female rats; for RET: male rats
Experimental: The rats that were judged suitable for the subchronic toxicity study were randomly divided into four groups (10 rats/sex/group). The rats received the test sample by gavage once daily for 28 days. HZ1006 was administered to the rats at doses of 120, 60, 20 and 0 (control) mg/kg, and the dosage volume was 5 mL/kg. Half of the 80 rats (half male and half female) were selected randomly according to body weight and dissected at d28. The remaining rats were dissected at […]. The following indexes were examined for the dogs used in the study, twice during the pre-dosage period and on d14, d28 and […]. The following parameters were evaluated on d28 and […] for the rats in the study: Blood samples of the animals were collected in tubes containing ethylenediamine tetraacetic acid (EDTA) and tested using an ADVIA2120 Hematology Autoanalyzer (Bayer, Leverkusen, Germany). The following indexes were examined: hemoglobin concentration (Hb), red blood cell count (RBC),mean corpuscular volume (MCV), hematocrit (HCT), mean corpuscular hemoglobin concentration (MCHC), mean corpuscular hemoglobin (MCH), white blood cell count (WBC), platelet count (Plt), WBC differential counts [neutrophilcyte (Neu), eosinophilic granulocyte (Eos), basophilic leukocyte (Bas), lymphocyte (Lym), and monocyte (Mon)] and reticulocytes (Ret). The serum coagulation times of the blood samples (1.8-mL samples were mixed with 0.2 mL sodium citrate), including prothrombin time (PT), fibrinogen (FIB), activated partial thromboplastin time (APTT), and thrombin time (TT), were tested using an MC10 plus Blood Coagulation Analyzer from Shanghai San Jose Medical Products Co., Ltd. (Shanghai, China).

[2] = plasma, po, 5 mg/kg/day, 5 mg/kg/day oral, 14 days
[3] = plasma, po, 5 mg/kg/day, 5 mg/kg/day oral, 28 days
[4] = plasma, po, 5 mg/kg/day, 5 mg/kg/day oral, single
[5] = plasma, po, 20 mg/kg/day, 20 mg/kg/day oral, 14 days
[6] = plasma, po, 20 mg/kg/day, 20 mg/kg/day oral, 28 days
[7] = plasma, po, 20 mg/kg/day, 20 mg/kg/day oral, single
[8] = plasma, po, 40 mg/kg/day, 40 mg/kg/day oral, 14 days
[9] = plasma, po, 40 mg/kg/day, 40 mg/kg/day oral, 28 days
[10] = plasma, po, 40 mg/kg/day, 40 mg/kg/day oral, single
[11] = plasma, po, 80 mg/kg/day, 80 mg/kg/day oral, 14 days
[12] = plasma, po, 80 mg/kg/day, 80 mg/kg/day oral, 28 days
[13] = plasma, po, 80 mg/kg/day, 80 mg/kg/day oral, single
[14] = 20 mg/kg oral daily, d42 (recovery)
[15] = 60 mg/kg oral daily, d42 (recovery)
[16] = 120 mg/kg oral daily, d42 (recovery)

CCCCCCCNc1cc(/C=C/C(=O)NO)ccc1OCCN(CC)CC [HZ1006]
accumulation coefficient R ([1]; 5 mg/kg/day oral): 1.3 ± 1.2
accumulation coefficient R ([1]; 80 mg/kg/day oral): 1.2 ± 0.9
Tmax ([1]; in vivo, 20 mg/kg/day oral, 28 days): 3.17 ± 1.33 h
Cmax ([1]; in vivo, 40 mg/kg/day oral, single): 456 ± 376 ng/mL
half-life ([1]; in vivo, 80 mg/kg/day oral, 28 days): 7.56 ± 3.27 h
AUC(0-inf) [1, 2]: 199 ± 69.6 ng·h/mL
Cmax [1, 2]: 30.1 ± 14.2 ng/mL
Tmax [1, 2]: 4.2 ± 2.01 h
half-life [1, 2]: 4.75 ± 1.23 h
AUC(0-inf) [1, 3]: 616 ± 242 ng·h/mL
Cmax [1, 3]: 65.7 ± 42 ng/mL
Tmax [1, 3]: 4.33 ± 2.94 h
half-life [1, 3]: 7.34 ± 1.02 h
AUC(0-inf) [1, 4]: 193 ± 64.6 ng·h/mL
Cmax [1, 4]: 35.6 ± 15.1 ng/mL
Tmax [1, 4]: 3.67 ± 1.52 h
half-life [1, 4]: 4.4 ± 0.61 h
AUC(0-inf) [1, 5]: 620 ± 249 ng·h/mL
Cmax [1, 5]: 68.1 ± 22.8 ng/mL
Tmax [1, 5]: 4 ± 2.19 h
half-life [1, 5]: 5.21 ± 0.53 h
AUC(0-inf) [1, 6]: 389 ± 104 ng·h/mL
Cmax [1, 6]: 55.2 ± 21.8 ng/mL
half-life [1, 6]: 5.35 ± 0.73 h
AUC(0-inf) [1, 7]: 1190 ± 320 ng·h/mL
Cmax [1, 7]: 139 ± 73.4 ng/mL
Tmax [1, 7]: 3.5 ± 2.51 h
half-life [1, 7]: 5.54 ± 1.53 h
AUC(0-inf) [1, 8]: 1020 ± 977 ng·h/mL
Cmax [1, 8]: 199 ± 175 ng/mL
Tmax [1, 8]: 1.9 ± 1.34 h
half-life [1, 8]: 7.34 ± 3.82 h
AUC(0-inf) [1, 9]: 928 ± 298 ng·h/mL
Cmax [1, 9]: 162 ± 102 ng/mL
Tmax [1, 9]: 2.2 ± 1.1 h
half-life [1, 9]: 5.08 ± 1.04 h
AUC(0-inf) [1, 10]: 2500 ± 1490 ng·h/mL
Tmax [1, 10]: 2.7 ± 2.7 h
half-life [1, 10]: 6.93 ± 3.03 h
AUC(0-inf) [1, 11]: 1550 ± 758 ng·h/mL
Cmax [1, 11]: 174 ± 123 ng/mL
Tmax [1, 11]: 4.43 ± 3.53 h
half-life [1, 11]: 7.23 ± 3.45 h
AUC(0-inf) [1, 12]: 1820 ± 570 ng·h/mL
Cmax [1, 12]: 180 ± 83.4 ng/mL
Tmax [1, 12]: 4.6 ± 3.29 h
AUC(0-inf) [1, 13]: 3870 ± 2630 ng·h/mL
Cmax [1, 13]: 365 ± 257 ng/mL
Tmax [1, 13]: 3.5 ± 2.51 h
half-life [1, 13]: 6.74 ± 2.2 h
APTT (SD rats; 20 mg/kg oral daily, d28): 24.3 ± 3.5 s
FIB (SD rats; 20 mg/kg oral daily, d28): 1.87 ± 0.09 g/L
Lym (SD rats; 20 mg/kg oral daily, d28): 88.38 ± 1.68%
Neu (SD rats; 20 mg/kg oral daily, d28): 8.70 ± 1.72%
WBC (SD rats; 20 mg/kg oral daily, d28): 3.17 ± 1.23 ×10^9·L^−1
APTT (SD rats; [14]): 22.2 ± 3.0 s
FIB (SD rats; [14]): 1.62 ± 0.17 g/L
Lym (SD rats; [14]): 85.40 ± 3.85%
Neu (SD rats; [14]): 11.58 ± 4.04%
WBC (SD rats; [14]): 2.68 ± 0.63 ×10^9·L^−1
APTT (SD rats; 60 mg/kg oral daily, d28): 23.0 ± 2.4 s
FIB (SD rats; 60 mg/kg oral daily, d28): 1.89 ± 0.06 g/L
Lym (SD rats; 60 mg/kg oral daily, d28): 84.70 ± 5.45%
Neu (SD rats; 60 mg/kg oral daily, d28): 12.08 ± 4.77%
WBC (SD rats; 60 mg/kg oral daily, d28): 2.82 ± 0.60 ×10^9·L^−1
APTT (SD rats; [15]): 25.2 ± 1.3 s
FIB (SD rats; [15]): 1.62 ± 0.18 g/L
Lym (SD rats; [15]): 85.36 ± 6.93%
Neu (SD rats; [15]): 12.06 ± 6.70%
WBC (SD rats; [15]): 2.53 ± 0.60 ×10^9·L^−1
APTT (SD rats; 120 mg/kg oral daily, d28): 22.6 ± 2.4 s
FIB (SD rats; 120 mg/kg oral daily, d28): 2.01 ± 0.40 g/L
Lym (SD rats; 120 mg/kg oral daily, d28): 77.22 ± 8.78%
Neu (SD rats; 120 mg/kg oral daily, d28): 19.28 ± 8.26%
WBC (SD rats; 120 mg/kg oral daily, d28): 3.95 ± 0.77 ×10^9·L^−1
APTT (SD rats; [16]): 25.2 ± 1.6 s
FIB (SD rats; [16]): 1.85 ± 0.12 g/L
Lym (SD rats; [16]): 85.88 ± 1.85%
Neu (SD rats; [16]): 10.76 ± 1.81%
WBC (SD rats; [16]): 3.00 ± 0.43 ×10^9·L^−1
RET (SD rats; 20 mg/kg oral daily, d28): 1.88 ± 0.32%
RET (SD rats; [14]): 1.92 ± 0.31%
RET (SD rats; 60 mg/kg oral daily, d28): 1.43 ± 0.22%
RET (SD rats; [15]): 1.82 ± 0.43%
RET (SD rats; 120 mg/kg oral daily, d28): 2.04 ± 0.31 %
RET (SD rats; [16]): 2.16 ± 0.22%
